# PMC5515969, “Effects of 31 FDA approved small-molecule kinase inhibitors on isolated rat liver mitochondria” (Archives of Toxicology, 2016)
# Like-named read-outs stand apart in the source and are kept apart here.
# How the values were obtained:
# RCC II = target: T1, RCC II (Rattus norvegicus, UniProt P21913+Q641Z9+Q6PCT8+Q920L2); experiment: RCC II activity in submitochondrial particles; type: biochemical; set-up: key: activity relative to DMSO-treated controls (control set as 1 = 100%); conditions: relative to DMSO treated samples
# T1 construct: Submitochondrial particles were prepared by subjecting the intact mitochondria to three successive freeze–thaw cycles; from tissue; host or cells: rat liver mitochondria, used as submitochondrial particles
# Method in brief: (§1)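 Kinase inhibitors were preincubated 15 min with submitochondrial particles (1 mg/ml) before complex activities were measured. RCC I was the rotenone-sensitive portion (activity without minus with rotenone). RCC I/V was read at 340 nm and RCC II at 600 nm every 1 min for 6 min. RCC III and IV were read at 550 nm every 10 s for 2 min. Activities are normalized to DMSO controls set as 1.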
# RCC III = RCC III activity in submitochondrial particles; type: biochemical, rat; conditions: 15 min, DMSO-treated = 100
# Method in brief: as §1
# [1] = test system: isolated rat liver mitochondria; experiment: Mitochondrial ROS production (CM-H2DCFDA); conditions: DMSO treated samples set as 1
# [2] = cited from earlier work
# [3] = test system: isolated rat liver mitochondria; experiment: Mitochondrial inner membrane potential (MMP), Rhodamine 123; type: biochemical; conditions: difference in signal between KI and DMSO treated samples at the end of experiments
# Excerpt: Fig. 3 KI effects on mitochondrial inner membrane potential (MMP). […] In a, c, data are means and standard derivations from three separate experiments. *p < 0.05 as compared to DMSO-treated samples at the end of experiments. In b, data are means of two independent experiments
# [4] = test system: isolated rat liver mitochondria
# RCC I = RCC I activity in submitochondrial particles; type: biochemical, rat; set-up: key to RCC I at 10XCmax / RCC I at 100XCmax / RCC I at 50XCmax / RCC I at 30XCmax / RCC I at 20XCmax: activity relative to DMSO-treated controls (control set as 1 = 100%); conditions: for RCC activity I: 15 min, DMSO-treated = 100
# Method in brief: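 Abs 340 nm (I/V) or 600 nm (II), 1-min reads × 6 min; 550 nm (III, IV), 10-s reads × 2 min. RCC I = rotenone-free minus rotenone rate. DMSO control = 1.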
# RCC V = RCC V activity in submitochondrial particles; type: biochemical, rat; conditions: for RCC activity V: 15 min, DMSO-treated = 100; as to RCC V at 5XCmax: key: 0 indicates that the drug had no effects (negative)
# Method in brief: as §1
# [5] = test system: isolated rat liver mitochondria; experiment: Mitochondrial oxygen consumption (glutamate/malate or succinate driven, state 4 and state 3); type: biochemical; as to State 3 respiration driven by succinate at 10XCmax: key: 0 indicates that the drug had no effects (negative); as to State 3 respiration driven by succinate at 1XCmax: key: 0 indicates that the drug had no effects (negative)
# Method in brief: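 Rat liver mitochondria (1 mg/ml protein) exposed 5 min to kinase inhibitors in 0.1% DMSO, then O2 consumption measured by Clark-type electrode with glutamate/malate or succinate (state 4), ADP added after 3 min (state 3). Rates normalized to 0.1% DMSO controls set to 1.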
# [6] = 1XCmax, DMSO treated samples set as 1
# [7] = 2.5XCmax, DMSO treated samples set as 1
# [8] = 5XCmax, DMSO treated samples set as 1
# [9] = 10XCmax, DMSO treated samples set as 1
# [10] = 20XCmax, DMSO treated samples set as 1
# [11] = 30XCmax, DMSO treated samples set as 1
# [12] = 50XCmax, DMSO treated samples set as 1
# [13] = 100XCmax, DMSO treated samples set as 1
# T1 sequence (Q920L2 35-656): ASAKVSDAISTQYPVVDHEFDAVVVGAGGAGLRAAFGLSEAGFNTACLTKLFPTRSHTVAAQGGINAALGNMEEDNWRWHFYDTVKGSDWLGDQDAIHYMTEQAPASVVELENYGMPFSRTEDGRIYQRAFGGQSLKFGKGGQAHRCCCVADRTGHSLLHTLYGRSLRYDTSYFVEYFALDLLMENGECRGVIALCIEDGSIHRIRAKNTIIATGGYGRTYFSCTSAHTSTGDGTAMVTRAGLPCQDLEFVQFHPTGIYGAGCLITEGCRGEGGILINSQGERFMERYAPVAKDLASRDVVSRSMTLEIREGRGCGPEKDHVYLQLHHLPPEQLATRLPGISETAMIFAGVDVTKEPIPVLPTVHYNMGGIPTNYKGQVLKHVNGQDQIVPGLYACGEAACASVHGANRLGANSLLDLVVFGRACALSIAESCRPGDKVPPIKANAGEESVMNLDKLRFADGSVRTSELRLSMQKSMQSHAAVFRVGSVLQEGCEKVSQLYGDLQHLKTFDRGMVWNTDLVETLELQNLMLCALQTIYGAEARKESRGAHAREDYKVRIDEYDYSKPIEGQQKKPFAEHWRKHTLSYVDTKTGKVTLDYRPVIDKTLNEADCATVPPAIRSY
# T1 sequence (P21913 31-282): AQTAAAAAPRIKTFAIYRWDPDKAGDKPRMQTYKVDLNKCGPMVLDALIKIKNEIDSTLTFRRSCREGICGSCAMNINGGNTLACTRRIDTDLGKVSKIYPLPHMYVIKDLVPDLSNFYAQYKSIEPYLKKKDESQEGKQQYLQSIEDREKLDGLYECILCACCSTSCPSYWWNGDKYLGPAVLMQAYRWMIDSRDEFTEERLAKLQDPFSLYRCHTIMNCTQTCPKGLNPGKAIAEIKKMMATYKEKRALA
# T1 sequence (Q641Z9 1-169): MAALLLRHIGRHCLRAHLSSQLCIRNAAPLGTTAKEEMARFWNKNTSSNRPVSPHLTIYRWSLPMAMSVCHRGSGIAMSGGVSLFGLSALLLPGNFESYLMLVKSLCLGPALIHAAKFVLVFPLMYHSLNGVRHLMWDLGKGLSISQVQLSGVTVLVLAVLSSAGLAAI
# T1 sequence (Q6PCT8 57-159): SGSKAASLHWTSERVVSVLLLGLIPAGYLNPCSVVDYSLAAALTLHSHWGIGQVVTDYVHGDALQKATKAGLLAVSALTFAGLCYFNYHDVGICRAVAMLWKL
structure (smiles),measurement,setting,value
COc1cc2c(Nc3ccc(Br)cc3F)ncnc2cc1OCC1CCN(C)CC1 [Vandetanib],RCC II at 1.0XCmax,RCC II; 1.0XCmax,0
same,RCC II at 2.5XCmax,RCC II; 2.5XCmax,0
same,RCC II at 5XCmax,RCC II; 5XCmax,0
same,RCC II at 10XCmax,RCC II; 10XCmax,0
same,RCC II at 20XCmax,RCC II; 20XCmax,0
same,RCC II at 30XCmax,RCC II; 30XCmax,0
same,RCC II at 50XCmax,RCC II; 50XCmax,0
same,RCC II at 100XCmax,RCC II; 100XCmax,0
same,RCC activity III,RCC III; 50-fold Cmax,99.20 ± 5.61 % of control
same,RCC activity III,RCC III; 100-fold Cmax,91.23 ± 6.54 % of control
same,ROS measured by CM-H2DCFDA at 1XCmax,[1]; 1XCmax,0
same,ROS measured by CM-H2DCFDA at 2.5XCmax,[1]; 2.5XCmax,0
same,ROS measured by CM-H2DCFDA at 5XCmax,[1]; 5XCmax,0
same,ROS measured by CM-H2DCFDA at 10XCmax,[1]; 10XCmax,0
same,ROS measured by CM-H2DCFDA at 20XCmax,[1]; 20XCmax,0
same,ROS measured by CM-H2DCFDA at 30XCmax,[1]; 30XCmax,0
same,ROS measured by CM-H2DCFDA at 50XCmax,[1]; 50XCmax,0
same,ROS measured by CM-H2DCFDA at 100XCmax,[1]; 100XCmax,0
same,Cmax,"[2]; human therapeutic Cmax at FDA recommended dosages, ref product labeling and drug approval packages at the official FDA website",1.8 µM
same,Cmax,"[2]; read-out: Cmax at µM, therapeutic maximal blood concentration, ref product labeling",1.8 µM
same,Cmax,"[2]; therapeutic maximal blood concentration, ref product labeling",857 ng/mL
same,MMP measured by Rhodamine 123 at 1XCmax,[3]; 1XCmax,0
same,MMP measured by Rhodamine 123 at 2.5XCmax,[3]; 2.5XCmax,0
same,MMP measured by Rhodamine 123 at 5XCmax,[3]; 5XCmax,0
same,MMP measured by Rhodamine 123 at 10XCmax,[3]; 10XCmax,0
same,MMP measured by Rhodamine 123 at 20XCmax,[3]; 20XCmax,0
same,MMP measured by Rhodamine 123 at 30XCmax,[3]; 30XCmax,0
same,MMP measured by Rhodamine 123 at 50XCmax,[3]; 50XCmax,0
same,MMP measured by Rhodamine 123 at 100XCmax,[3]; 100XCmax,0
same,Cytochrome c release 1XCmax,"[4]; 1XCmax, positive control alamethicin treated samples",0
same,Cytochrome c release 2.5XCmax,"[4]; 2.5XCmax, positive control alamethicin treated samples",0
same,Cytochrome c release 5XCmax,"[4]; 5XCmax, positive control alamethicin treated samples",0
same,Cytochrome c release 10XCmax,"[4]; 10XCmax, positive control alamethicin treated samples",0
same,Cytochrome c release 20XCmax,"[4]; 20XCmax, positive control alamethicin treated samples",0
same,Cytochrome c release 30XCmax,"[4]; 30XCmax, positive control alamethicin treated samples",0
same,Cytochrome c release 50XCmax,"[4]; 50XCmax, positive control alamethicin treated samples",0
same,Cytochrome c release 100XCmax,"[4]; 100XCmax, positive control alamethicin treated samples",18.47±3.80 percentage of the positive control group
same,lowest concentration causing cytochrome c release,"[4]; rat, 30 min, pH 7.4",100 fold Cmax
same,RCC I at 10XCmax,"RCC I; 10XCmax, relative to DMSO treated samples",0
same,RCC activity I,RCC I; 50-fold Cmax,87.71 ± 0.58 % of control
same,RCC I at 50XCmax,"RCC I; 50XCmax, relative to DMSO treated samples",87.71±0.58
same,RCC activity I,RCC I; 100-fold Cmax,65.88 ± 7.15 % of control
same,RCC I at 100XCmax,"RCC I; 100XCmax, relative to DMSO treated samples",65.88±7.15
same,lowest concentration inhibiting RCC I,RCC I; submitochondrial particles,50 fold Cmax
same,RCC V at 5XCmax,"RCC V; 5XCmax, relative to DMSO treated samples",0
same,RCC activity V,RCC V; 50-fold Cmax,95.65 ± 4.66 % of control
same,RCC activity V,RCC V; 100-fold Cmax,85.15 ± 8.36 % of control
same,State 3 respiration driven by glutamate/malate at 1XCmax,[5]; [6],0
same,State 3 respiration driven by succinate at 1XCmax,[5]; [6],0
same,State 4 respiration driven by glutamate/malate at 1XCmax,[5]; [6],0
same,State 4 respiration driven by succinate at 1XCmax,[5]; [6],0
same,State 3 respiration driven by glutamate/malate at 2.5XCmax,[5]; [7],0
same,State 3 respiration driven by succinate at 2.5XCmax,[5]; [7],0
same,State 4 respiration driven by glutamate/malate at 2.5XCmax,[5]; [7],0
same,State 4 respiration driven by succinate at 2.5XCmax,[5]; [7],0
same,State 3 respiration driven by glutamate/malate at 5XCmax,[5]; [8],0
same,State 3 respiration driven by succinate at 5XCmax,[5]; [8],0
same,State 4 respiration driven by glutamate/malate at 5XCmax,[5]; [8],0
same,State 4 respiration driven by succinate at 5XCmax,[5]; [8],0
same,State 3 respiration driven by glutamate/malate at 10XCmax,[5]; [9],0
same,State 3 respiration driven by succinate at 10XCmax,[5]; [9],0
same,State 4 respiration driven by glutamate/malate at 10XCmax,[5]; [9],0
same,State 4 respiration driven by succinate at 10XCmax,[5]; [9],0
same,State 3 respiration driven by glutamate/malate at 20XCmax,[5]; [10],0
same,State 3 respiration driven by succinate at 20XCmax,[5]; [10],0
same,State 4 respiration driven by glutamate/malate at 20XCmax,[5]; [10],0
same,State 4 respiration driven by succinate at 20XCmax,[5]; [10],0
same,State 3 respiration driven by glutamate/malate at 30XCmax,[5]; [11],0
same,State 3 respiration driven by succinate at 30XCmax,[5]; [11],0
same,State 4 respiration driven by glutamate/malate at 30XCmax,[5]; [11],0
same,State 4 respiration driven by succinate at 30XCmax,[5]; [11],0
same,State 3 respiration driven by glutamate/malate at 50XCmax,[5]; [12],0
same,State 3 respiration driven by succinate at 50XCmax,[5]; [12],0
same,State 4 respiration driven by glutamate/malate at 50XCmax,[5]; [12],0
same,State 4 respiration driven by succinate at 50XCmax,[5]; [12],0
same,State 3 respiration driven by glutamate/malate at 100XCmax,[5]; [13],0
same,State 3 respiration driven by succinate at 100XCmax,[5]; [13],0
same,State 4 respiration driven by glutamate/malate at 100XCmax,[5]; [13],0
same,State 4 respiration driven by succinate at 100XCmax,[5]; [13],0
same,effect on mitochondrial oxygen consumption,[5]; up to 100-fold Cmax or highest testable concentration,no effects
